In ChEMBL document CHEMBL2203071, “Gambogic acid deactivates cytosolic and mitochondrial thioredoxins by covalent binding to the functional domain” (J Nat Prod, 2012):
pKi: −log10 of the molar value. Active and inactive are the calls of the source. The calls are words filed in the database; no cut-off is given here.

Tests used:
[1] = target: T1, Thioredoxin (Homo sapiens) (UniProt P10599); assay: Covalent binding affinity to human recombinant TRX-1 assessed as change in protein configuration at 0.1 mM by MALDITOF mass spectrometry
T1 sequence (whole entry): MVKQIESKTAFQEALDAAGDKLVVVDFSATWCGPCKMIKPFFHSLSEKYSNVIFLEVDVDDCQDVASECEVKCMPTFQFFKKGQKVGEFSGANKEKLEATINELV

[2] = target: T2, Thioredoxin, mitochondrial (Homo sapiens) (UniProt Q99757); assay: Covalent binding affinity to human recombinant TRX-2 assessed as change in protein configuration at 0.05 mM by MALDITOF mass spectrometry
T2 sequence (whole entry): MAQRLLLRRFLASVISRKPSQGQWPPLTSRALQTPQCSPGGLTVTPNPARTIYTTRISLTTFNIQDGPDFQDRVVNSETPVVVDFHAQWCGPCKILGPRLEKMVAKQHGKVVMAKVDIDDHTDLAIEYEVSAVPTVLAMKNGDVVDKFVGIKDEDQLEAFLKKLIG

[3] = target: T2, Thioredoxin, mitochondrial (Homo sapiens); assay: Covalent binding affinity to TRX-2 in human […] cells at 3 uM after 2 hrs by immunofluorescence assay; format: cell-based
[4] = target: T1, Thioredoxin (Homo sapiens); assay: Covalent binding affinity to TRX-1 in human […] cells at 3 uM after 2 hrs by immunofluorescence assay; format: cell-based
[5] = target: T1, Thioredoxin (Homo sapiens); assay: Covalent binding affinity to TRX-1 in human […] cells assessed as compound-TRX-1 adduct formation at 3 uM after 2 hrs by immunoblotting in presence of GSH; format: cell-based
[6] = target: T2, Thioredoxin, mitochondrial (Homo sapiens); assay: Covalent binding affinity to TRX-2 in human […] cells assessed as compound-TRX-2 adduct formation at 3 uM after 2 hrs by immunoblotting in presence of GSH; format: cell-based
Thioredoxin = target: T3, Thioredoxin (Homo sapiens, UniProt P10599); assay: (§1) Inhibition of human recombinant TRX-1 up to 60 mins by insulin reduction assay
T3 sequence (P10599 whole entry): T1 sequence (whole entry)

[7] = target: T1, Thioredoxin (Homo sapiens); assay: as §1
[8] = target: T4, Thioredoxin, mitochondrial (Homo sapiens, UniProt Q99757); assay: (§2) Inhibition of human recombinant TRX-2 up to 60 mins by insulin reduction assay
T4 sequence (Q99757 whole entry): T2 sequence (whole entry)

[9] = target: T2, Thioredoxin, mitochondrial (Homo sapiens); assay: as §2
[10] = target: T1, Thioredoxin (Homo sapiens); assay: Inhibition of human recombinant TRX-1 by insulin reduction assay; details: TDE = time-dependent effect
[11] = target: T1, Thioredoxin (Homo sapiens); assay: Covalent binding affinity to human recombinant TRX-1 assessed as change in protein configuration at 50 uM by LC-ESIQTOF mass spectrometry; details: TDE = time-dependent effect
[12] = target: T2, Thioredoxin, mitochondrial (Homo sapiens); assay: Covalent binding affinity to human recombinant TRX-2 assessed as change in protein configuration at 20 uM by LC-ESIQTOF mass spectrometry; details: TDE = time-dependent effect
[13] = target: T2, Thioredoxin, mitochondrial (Homo sapiens); assay: Inhibition of human recombinant TRX-2 by insulin reduction assay; details: TDE = time-dependent effect
[14] = target: T1, Thioredoxin (Homo sapiens); assay: Covalent binding affinity to human recombinant TRX-1 C assessed as modification in C62/C69/C73 residues by LC-MS/MS analysis
[15] = target: T2, Thioredoxin, mitochondrial (Homo sapiens); assay: Covalent binding affinity to human recombinant TRX-2 C assessed as modification in C31/C34 residues by LC-MS/MS analysis
[16] = target: T1, Thioredoxin (Homo sapiens); assay: Inhibition of TRX1 in human […] cells after 2 hrs by insulin reduction assay; format: cell-based

CC(C)=CCC[C@]1(C)C=Cc2c(O)c3c(c(CC=C(C)C)c2O1)O[C@]12C(C3=O)[C@@H](S(=O)(=O)O)[C@@H]3C[C@H]1C(C)(C)O[C@@]2(C/C=C(/C)C(=O)O)C3=O (some centres undefined)
Activity [1]: inactive | Activity [2]: inactive

CC(C)=CCC[C@]1(C)C=Cc2c(O)c3c(c(CC=C(C)C)c2O1)O[C@]12C(C3=O)C(O)[C@@H]3C[C@H]1C(C)(C)O[C@@]2(C/C=C(/C)C(=O)O)C3=O (some centres undefined)
Activity [1]: inactive | Activity [2]: inactive

CC(C)=CCC/C(C)=C/Cc1c(O)c(CC=C(C)C)c2c(c1O)C(=O)C1=C[C@@H]3C[C@H]4C(C)(C)O[C@@](C/C=C(/C)C(=O)O)(C3=O)[C@@]14O2
Activity [1]: Active | Activity [2]: Active

CC(C)=CCC[C@]1(C)C=Cc2c(O)c3c(c(CC=C(C)C)c2O1)O[C@]12C(C3=O)[C@H](S(=O)(=O)O)[C@@H]3C[C@H]1C(C)(C)O[C@@]2(C/C=C(/C)C(=O)O)C3=O (some centres undefined)
Activity [1]: inactive | Activity [2]: inactive

CC(C)=CCC[C@]1(C)C=Cc2c(O)c3c(c(CC=C(C)C)c2O1)O[C@]12C(C[C@@H]4C[C@H]1C(C)(C)O[C@@]2(C/C=C(/C)C(=O)O)C4=O)C3=O (some centres undefined)
Activity [1]: inactive | Activity [2]: inactive

CC(C)=CCC[C@]1(C)C=Cc2c(O)c3c(c(CC=C(C)C)c2O1)O[C@]12C(=C[C@@H]4C[C@H]1C(C)(C)O[C@@]2(C/C=C(/C)C(=O)NCCCCCNC(=O)CCCC[C@@H]1SC[C@@H]2NC(=O)N[C@@H]21)C4=O)C3=O
Activity [3]: Active | Activity [4]: Active | Activity [5]: Active | Activity [6]: Active

CC(C)=CCC[C@]1(C)C=Cc2c(O)c3c(c(CC=C(C)C)c2O1)O[C@]12C(=C[C@@H]4C[C@H]1C(C)(C)O[C@@]2(C/C=C(/C)C(=O)O)C4=O)C3=O [GAMBOGIC ACID]
pKi (Thioredoxin): 5.51 | Kinact [7]: 0.063 min⁻¹ | inhibition [7]: Dose-dependent effect | pKi [8]: 5.88 | Kinact [9]: 0.037 min⁻¹ | inhibition [9]: Dose-dependent effect | inhibition [10]: tde | Activity [11]: tde | Activity [1]: Active | Activity [12]: tde | Activity [2]: Active | inhibition [13]: tde | Activity [14]: Active | Activity [15]: Active | inhibition [16]: Dose-dependent effect
